Columns and labels:
[1] = target: T1, human NK2 receptor (Homo sapiens, UniProt P21452); experiment: Binding inhibitory activity toward human NK2 receptor; conditions: (2-[125I]iodohistidyl1)Neurokinin A 0.1 nM, receptor expressed in COS-7 cells, room temperature 60 min
T1 construct: expressed in transfected cells; host or cells: COS-7 cells, transient transfection with an SRa-promoter expression vector; membrane preparation
T1 sequence (P21452 1-398): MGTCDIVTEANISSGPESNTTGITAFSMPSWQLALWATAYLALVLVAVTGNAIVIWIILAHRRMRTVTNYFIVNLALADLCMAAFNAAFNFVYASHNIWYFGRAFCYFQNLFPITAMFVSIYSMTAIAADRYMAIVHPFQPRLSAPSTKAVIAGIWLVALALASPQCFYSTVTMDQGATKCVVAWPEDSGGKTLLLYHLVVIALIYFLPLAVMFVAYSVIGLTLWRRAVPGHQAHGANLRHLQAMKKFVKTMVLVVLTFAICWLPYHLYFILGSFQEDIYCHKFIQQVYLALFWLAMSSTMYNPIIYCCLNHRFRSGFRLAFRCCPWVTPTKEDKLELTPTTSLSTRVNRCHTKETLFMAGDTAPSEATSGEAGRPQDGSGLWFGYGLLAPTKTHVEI

Row | melting point [°C] | IC50 [1] [nM] | Structure (SMILES)
1 | 188 to 189 | 7.5 | O=C1c2c(-c3ccccc3)ccnc2OCCCN1Cc1cc(C(F)(F)F)cc(C(F)(F)F)c1 [Reference Example 76, 5-[3,5-Bis(trifluoromethyl)benzyl]-2,3,4,5-tetrahydro-6-oxo-7-phenyl-6H-pyrido[2,3-b][1,5]oxazocine]
2 | – | 6.2 | O=C1c2c(-c3ccccc3)c3cccnc3c(=O)n2CCCCN1Cc1ccccc1 [Reference Example 81, 7-Benzyl-6,7,8,9,10,11-hexahydro-6,13-dioxo-5-phenyl-13H-[1,4]diazocino[2,1-g][1,7]naphthyridine]
3 | 151 to 153 | 9.5 | Cc1cc(-c2ccccc2)c2c(n1)OCCN(Cc1cc(C(F)(F)F)cc(C(F)(F)F)c1)C2=O [Reference Example 87, 4-[3,5-Bis(trifluoromethyl)benzyl]-2,3,4,5-tetrahydro-8-methyl-5-oxo-6-phenylpyrido[3,2-f][1,4]oxazepine]

Reference: US20020132817A1, “Heterocyclic compounds, their production and use” (priority 1998, published 2002)
